# Data taken from publication PMC11551755, “Structure-based discovery of first inhibitors targeting the helicase activity of human PIF1” (Nucleic Acids Research, 2024).
# Numbering of substitutions follows the chain as printed.
# Key:
# hPIF1HD V258L = molecular target: T1, hPIF1HD V258L (Homo sapiens, UniProt Q9H611, V258L); assay: ssDNA d(T)55 binding assay (EMSA), hPIF1HD V258L variant; conditions: 0.25 nM d(T)55, 2 nM protein, 5 mM AMP-PNP, 0.0078–2 mM compound; read-out: IC50 for inhibition of ssDNA binding, V258L
# T1 construct: The human PIF1 helicase domain and mutants (hPIF1HD, residues 206–620); hexa-histidine tag (N, cleaved yes); made in house; host or cells: ArcticExpress BL21(DE3) E. coli (Agilent Technologies)
# T1 sequence (Q9H611 206-620 V258L): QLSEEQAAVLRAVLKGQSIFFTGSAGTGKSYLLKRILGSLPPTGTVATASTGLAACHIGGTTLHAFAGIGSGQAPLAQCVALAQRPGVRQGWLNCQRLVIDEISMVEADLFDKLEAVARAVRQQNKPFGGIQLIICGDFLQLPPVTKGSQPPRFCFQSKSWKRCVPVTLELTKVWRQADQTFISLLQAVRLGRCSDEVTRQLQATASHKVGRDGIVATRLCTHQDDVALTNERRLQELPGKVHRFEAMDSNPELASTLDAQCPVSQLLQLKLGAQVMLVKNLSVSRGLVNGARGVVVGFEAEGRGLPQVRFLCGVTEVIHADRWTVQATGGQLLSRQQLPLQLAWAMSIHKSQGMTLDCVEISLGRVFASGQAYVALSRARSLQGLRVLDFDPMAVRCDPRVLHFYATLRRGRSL
# Protocol: (§1) DNA binding of hPIF1HD was assayed using a ^32P-5′ end-labelled oligo d(T)55 substrate (0.25 nM), under the same buffer conditions described for helicase assays, but with AMP-PNP instead of ATP. Reaction products were resolved on 5% poly-acrylamide gels (29:1 acrylamide:bis-acrylamide) using 0.25× TBE running buffer ([19],[28]). Gels were processed and reaction products quantified by phosphorimaging and IC50 values determined as described above.
# (§2) In hPIF1HD/AMP-PNP/1 there are no direct hydrogen bonds between amino acid side chains and 1, however, Val 258 from domain 1A is making van der Waals interaction (<3.8 Å) with the amide group at one end of the molecule (Figure 1). From the structural data, we reasoned that substitution of the Val 258 with alanine (V258A) would increase the size of the binding pocket and its accessibility to ligand, while substitution with leucine (V258L) would decrease pocket size and possibly instigate a clash with Lys 556, disrupting interactions with compound 1 or derivatives. Accordingly, we purified hPIF1HD V258A and V258L variant forms and analysed ssDNA d(T)55 binding in the presence of SMIs, using EMSA as above.
# (§3) Supplementary Figure 12. hPIF1HD variants V258A and V258L ssDNA binding IC50 determination by EMSA with selected SMIs. All binding reactions were assembled under helicase reaction conditions but with 0.25 nM radiolabelled oligo d(T)55, and 5 mM AMP-PNP. (A) DNA binding activity of wild type and mutant proteins was assessed by EMSA without inhibitors. […] 1D: Wild type (WT), V258A and V258L, not determined. 2: WT, 224 ± […]; V258A, 103 ± 31 µM; V258L, 304 ± 88 µM. 5: WT, 198 ± 54 µM; V258A, 79.2 ± 27 µM; V258L, 414 ± 45 µM. 6: WT, 722 ± 194 µM; V258A, 295 ± 116 µM; V258L, 1010 ± 282 µM. 10: WT, 224 ±59 µM; V258A, 152 ± 42 µM; V258L, 378 ± 99 µM. 11: WT, 284 ± 110 µM; V258A, 151 ± 51 µM; V258L, 551 ± 215 µM.
# hPIF1HD V258A = molecular target: T2, hPIF1HD V258A (Homo sapiens, UniProt Q9H611, V258A); assay: ssDNA d(T)55 binding assay (EMSA), hPIF1HD V258A variant; conditions: 0.25 nM d(T)55, 2 nM protein, 5 mM AMP-PNP, 0.0078–2 mM compound; read-out: IC50 for inhibition of ssDNA binding, V258A
# T2 construct: The human PIF1 helicase domain and mutants (hPIF1HD, residues 206–620); hexa-histidine tag (N, cleaved yes); made in house; host or cells: ArcticExpress BL21(DE3) E. coli (Agilent Technologies)
# T2 sequence (Q9H611 206-620 V258A): T1 sequence (Q9H611 206-620 V258L) with L53A
# Protocol: as §1, §2, §3
Structure (SMILES),IC50 (hPIF1HD V258L),IC50 (hPIF1HD V258A)
N#Cc1ccc(-c2csc(N)n2)cc1 [Compound 5],414 ± 45 µM,79.2 ± 27 µM
CC(=O)c1ccc(-c2csc(N)n2)cc1 [Compound 2],304 ± 88 µM,103 ± 31 µM
CC(=O)Nc1ccc(-c2csc(N)n2)cc1C1=CCNCC1 [Compound 11],551 ± 215 µM,151 ± 51 µM
CC(=O)Nc1ccc(-c2csc(N)n2)cc1-c1ccc(C)cc1 [Compound 10],378 ± 99 µM,152 ± 42 µM
Nc1nc(-c2ccc(C(=O)c3ccccc3)cc2)cs1 [Compound 6],1010 ± 282 µM,295 ± 116 µM
